Source: ChEMBL document CHEMBL4196076, “An access to a library of novel triterpene derivatives with a promising pharmacological potential by Ugi and Passerini multicomponent reactions” (Eur J Med Chem, 2018)

Experiments:
[1] = test system: A2780; experiment: Cytotoxicity against human A2780 cells after 96 hrs by sulforhodamine-B assay; format: functional, cell-based; settings: A2780, 96 h
[2] = Selectivity index, ratio of EC50 for mouse NIH/3T3 cells to EC50 for human A2780 cells; format: toxicity; settings: NIH/3T3 cells and A2780 cells, read-out: Ratio EC50
[3] = test system: FaDu; experiment: Cytotoxicity against human FADU cells after 96 hrs by sulforhodamine-B assay; format: functional, cell-based
[4] = test system: HT-29; experiment: Cytotoxicity against human HT-29 cells after 96 hrs by sulforhodamine-B assay; format: functional, cell-based; settings: HT-29, 96 h
[5] = test system: A549; experiment: Cytotoxicity against human A549 cells after 96 hrs by sulforhodamine-B assay; format: functional, cell-based; settings: A549, 96 h
[6] = test system: MCF7; experiment: Cytotoxicity against human MCF7 cells after 96 hrs by sulforhodamine-B assay; format: functional, cell-based; settings: MCF7, 96 h
[7] = test system: NIH3T3; experiment: Cytotoxicity against mouse NIH/3T3 cells after 96 hrs by sulforhodamine-B assay; format: cell-based; settings: NIH3T3, 96 h
[8] = test system: 518A2; experiment: Cytotoxicity against human 518A2 cells after 96 hrs by sulforhodamine-B assay; format: functional, cell-based; settings: 518A2, 96 h
[9] = test system: A2780; experiment: Induction of apoptosis in human A2780 cells assessed as apoptotic cells at 2 uM after 48 hrs by Annexin V-FITC/propidium iodide staining-based flow cytometric analysis (reference value: 2.8 +/- 2.1%); format: functional
[10] = test system: A2780; experiment: Cell cycle arrest in human A2780 cells assessed as accumulation at sub-G1 phase at 2 uM after 48 hrs by propidium iodide/RNase-staining based flow cytometric analysis; format: functional
[11] = test system: A2780; experiment: Cell cycle arrest in human A2780 cells assessed as accumulation at S phase at 2 uM after 48 hrs by propidium iodide/RNase-staining based flow cytometric analysis (reference value: 29.6 +/- 3.1%); format: functional
[12] = test system: A2780; experiment: Cell cycle arrest in human A2780 cells assessed as accumulation at G0/G1 phase at 2 uM after 48 hrs by propidium iodide/RNase-staining based flow cytometric analysis (reference value: 57.5 +/- 4.5%); format: functional
[13] = test system: A2780; experiment: Induction of apoptosis in human A2780 cells assessed as secondary necrotic cells at 2 uM after 48 hrs by Annexin V-FITC/propidium iodide staining-based flow cytometric analysis (reference value: 8.2 +/- 0.7%); format: functional
[14] = test system: A2780; experiment: Induction of apoptosis in human A2780 cells assessed as vital cells at 2 uM after 48 hrs by Annexin V-FITC/propidium iodide staining-based flow cytometric analysis (reference value: 78.4 +/- 2.1%); format: functional
[15] = test system: A2780; experiment: Cell cycle arrest in human A2780 cells assessed as accumulation at G2/M phase at 2 uM after 48 hrs by propidium iodide/RNase-staining based flow cytometric analysis (reference value: 12.9 +/- 1.4%); format: functional
[16] = test system: A2780; experiment: Induction of apoptosis in human A2780 cells assessed as necrotic cells at 2 uM after 48 hrs by Annexin V-FITC/propidium iodide staining-based flow cytometric analysis (reference value: 10.6 +/- 1.2%); format: functional

C=CCN(CC(=O)NCC(=O)OC)C(=O)[C@]12CCC(C)(C)C[C@H]1C1=CC[C@@H]3[C@@]4(C)CC[C@H](OC(C)=O)C(C)(C)[C@@H]4CC[C@@]3(C)[C@]1(C)CC2
EC50 [1]: 3.5 µM | selectivity ratio [2]: 2.1 | EC50 [3]: 12.2 µM | EC50 [4]: 11.1 µM | EC50 [5]: 6.3 µM | EC50 [6]: 4.6 µM | EC50 [7]: 7.3 µM | EC50 [8]: 7.7 µM

CCCCNC(=O)CN(Cc1ccoc1)C(=O)[C@]12CCC(C)(C)C[C@H]1C1=CC[C@@H]3[C@@]4(C)CC[C@H](OC(C)=O)C(C)(C)[C@@H]4CC[C@@]3(C)[C@]1(C)CC2
EC50 [1]: 5.6 µM | EC50 [3]: 17.9 µM | EC50 [4]: > 30 µM | EC50 [5]: 16.2 µM | EC50 [6]: 13.9 µM | EC50 [7]: > 30 µM | EC50 [8]: 11.3 µM

CC(=O)O[C@H]1CC[C@]2(C)[C@H]3CC=C4[C@@H]5CC(C)(C)CC[C@]5(C(=O)N(CC(=O)NCc5ccccc5)Cc5ccccc5)CC[C@@]4(C)[C@]3(C)CC[C@H]2C1(C)C
EC50 [1]: 5.4 µM | EC50 [3]: 20.3 µM | EC50 [4]: > 30 µM | EC50 [5]: > 30 µM | EC50 [6]: > 30 µM | EC50 [7]: > 30 µM | EC50 [8]: 13.5 µM

CCCCN(CC(=O)NCc1ccccc1)C(=O)[C@]12CCC(C)(C)C[C@H]1C1=CC[C@@H]3[C@@]4(C)CC[C@H](OC(C)=O)C(C)(C)[C@@H]4CC[C@@]3(C)[C@]1(C)CC2
EC50 [1]: 4.4 µM | EC50 [3]: 19.8 µM | EC50 [4]: > 30 µM | EC50 [5]: > 30 µM | EC50 [6]: > 30 µM | EC50 [7]: > 30 µM | EC50 [8]: 8.2 µM

CC(=O)O[C@H]1CC[C@]2(C)[C@H]3CC=C4[C@@H]5CC(C)(C)CC[C@]5(C(=O)N(CC(=O)NC(C)(C)C)Cc5ccccc5)CC[C@@]4(C)[C@]3(C)CC[C@H]2C1(C)C
EC50 [1]: 2.7 µM | selectivity ratio [2]: > 11 | EC50 [3]: 16 µM | EC50 [4]: > 30 µM | EC50 [5]: > 30 µM | EC50 [6]: 14.1 µM | EC50 [7]: > 30 µM | EC50 [8]: 15 µM

C=CCN(CC(=O)NC(C)(C)C)C(=O)[C@]12CCC(C)(C)C[C@H]1C1=CC[C@@H]3[C@@]4(C)CC[C@H](OC(C)=O)C(C)(C)[C@@H]4CC[C@@]3(C)[C@]1(C)CC2
EC50 [1]: 12.5 µM | EC50 [3]: > 30 µM | EC50 [4]: > 30 µM | EC50 [5]: 24.2 µM | EC50 [6]: 12.1 µM | EC50 [7]: > 30 µM | EC50 [8]: 22.5 µM

CC(=O)O[C@H]1CC[C@]2(C)[C@H]3CC=C4[C@@H]5CC(C)(C)CC[C@]5(C(=O)OCC(=O)NCc5ccccc5)CC[C@@]4(C)[C@]3(C)CC[C@H]2C1(C)C
EC50 [1]: 6.8 µM | EC50 [3]: 7.2 µM | EC50 [4]: 11.3 µM | EC50 [5]: 6.9 µM | EC50 [6]: 6.4 µM | EC50 [7]: 6.4 µM | EC50 [8]: 7.7 µM

C=CCN(CC(=O)NC(C)(C)C)C(=O)[C@]12CCC(C)(C)C[C@H]1C1=CC[C@@H]3[C@@]4(C)C[C@@H](OC(C)=O)[C@H](OC(C)=O)C(C)(C)[C@@H]4CC[C@@]3(C)[C@]1(C)CC2
EC50 [1]: 0.5 µM | Activity [9]: 9.9% | Activity [10]: 5.3% | EC50 [3]: 4.8 µM | Activity [11]: 31.7% | Activity [12]: 56.8% | EC50 [4]: 3.9 µM | EC50 [5]: 4.4 µM | Activity [13]: 14.6% | Activity [14]: 61.7% | EC50 [6]: 4.1 µM | Activity [15]: 6.3% | Activity [16]: 13.7% | EC50 [7]: 7.8 µM | EC50 [8]: 2.9 µM

CC1(C)CC[C@]2(C(=O)N(CC(=O)NC(C)(C)C)Cc3ccoc3)CC[C@]3(C)C(=CC[C@@H]4[C@@]5(C)CC[C@H](O)C(C)(C)[C@@H]5CC[C@]43C)[C@@H]2C1
EC50 [1]: 10 µM | EC50 [3]: 17.4 µM | EC50 [4]: 6.7 µM | EC50 [5]: 18.9 µM | EC50 [6]: 4.1 µM | EC50 [7]: 11.8 µM | EC50 [8]: 13.9 µM
